Patent US20240059738A1, “SWITCHING PEPTIDE AND MULTIPLEX IMMUNOASSAY METHOD USING SAME” (OPTOLANE TECHNOLOGIES INC., priority 2021, published 2024)
pKd: −log10 of the molar value.

Legend:
Anti-CRP antibody(r) = assay: Antigen-induced release of fluorescently labeled peptide from immobilized antibody (Table 2), CRP antigen; assay type: binding; details: anti-CRP antibody (rabbit)
Anti-hCG antibody(m) = assay: Antigen-induced release of fluorescently labeled peptide from immobilized antibody (Table 2), hCG antigen; assay type: binding; details: anti-hCG antibody (mouse)
[1] = tested on: anti-HRP antibody from a rabbit; assay: One-step immunoassay with varying HRP concentration (FIGS. 7A-7C); assay type: binding; details: HRP 0.3 to 100 μM
Excerpt: FIG. 7A is a schematic diagram for explaining an immunoassay method using fluorescently labeled peptide compounds of Example 1, and FIGS. 7B and 7C are graphs illustrating the fluorescence intensities in a solution and at a bottom of the microplate depending on a concentration of the antigen measured by the immunoassay method illustrated in FIG. 7A. In this experiment, an anti-HRP antibody from a rabbit immobilized on a microplate was used as the binding antibody and HRP was used as the antigen.

L2 peptide = assay: FRET interaction between H1 and L2 peptides on microplate; assay type: binding; details: with increasing concentration of H1 peptide; FAM/TAMRA labels
Excerpt: FIG. 4A is diagrams illustrating a method for confirming a specific interaction between L1 and H2 peptides and a specific interaction between L2 and H1 peptides and the measurement results thereof, and FIG. 4B is diagrams for explaining a specific interaction between L1 and H2 peptides and a specific interaction between L2 and H1 peptides analyzed using PyMOL software. Here, at the ends of the L1 and L2 peptides, a first fluorescent label, FAM (λex=488 nm, λem=532 nm) was modified, and at the ends of the H1 and H2 peptides, a second fluorescent label, TAMRA λex=532 nm, λem=570 nm) was modified. Meanwhile, the first peptide (L1 or L2) was immobilized on a parylene-H-coated microplate through a covalent bond between a formyl group of parylene-H and a primary amine group of a lysine residue in the peptide, and the second peptide (H2 or H1) was incubated with the immobilized first peptide (L1 or L2) to allow specific interactions between them.

Anti-HBsAg antibody(g) = assay: Antigen-induced release of fluorescently labeled peptide from immobilized antibody (Table 2), HBsAg antigen; assay type: binding, goat
Anti-HRP antibody(r) = assay: Antigen-induced release of fluorescently labeled peptide from immobilized antibody (Table 2), HRP antigen; assay type: binding, rabbit
[2] = Net charge of switching peptides at pH 6.0 to 8.0; assay type: physicochemical; details: pH 6.0 to 7.0; histidine residue pKa 6.02
Method: Regarding the antibody binding properties of the switching peptides at pH 6.0 to 8.0, a net charge of H1 and L2 peptides decreased to 0.5 at pH 6.0 to 7.0 due to a histidine residue with a pKa value of 6.02. In addition, the net charge of the H2 and L2 peptides decreased to 0.5 at pH 7.0 to 8.0 due to a cysteine residue with a pKa value of 8.18. […] Therefore, the immunoassay was performed by selecting an L1 peptide having specific dissociation from hepatitis B surface antigen-antibody binding and stability within a pH range of human serum immunoassay.

[3] = tested on: rabbit anti-HRP antibodies (Fab region); assay: Papain treatment of immobilized antibody with bound fluorescently labeled switching peptide (FIG. 6B); assay type: binding; details: after papain treatment compared to before
Excerpt: FIG. 6A is a schematic diagram illustrating states before and after treatment of the antibody to which the four types of peptides of Example 1 were bound, respectively, with papain, which is a protease, and FIG. 6B is graphs illustrating a fluorescence intensity measured at a bottom (B) of the microplate and in a solution (S) after the papain treatment. In the case of this experiment, after immobilization of the antibodies (rabbit anti-HRP antibodies) on the microplate, binding between the antibody and the switching peptide was induced by treatment with a fluorescently labeled switching peptide, the unbound switching peptide was removed, and then the Fab region was hydrolyzed from the immobilized antibodies by adding papain, which is a protease.
Referring to FIG. 6A, the fluorescence at the bottom (B) of the microplate is expected to decrease after the papain reaction because the fluorescently labeled switching peptides are bound to the Fab region of antibodies, and the fluorescence in the solution is expected to increase because the Fab region to which the switching peptide is bound is hydrolyzed and dissolved into the solution. This prediction is proven to be true from the graphs of FIG. 6B.

[4] = anti-HBsAg antibody (goat), HBsAg
[5] = anti-HRP antibody (rabbit), HRP

Sequence: SYWIHWVKQRPGQGLEWIGE [H1, SYWIH WVKQR PGQGL EWIGE]
- Bottom (B) of microplate Change (%) (Anti-CRP antibody(r)): −26.8%
- In solution (S) Change (%) (Anti-CRP antibody(r)): +152%
- fluorescence intensity Bottom (B) of microplate After antigen binding (Anti-CRP antibody(r)): 3595
- fluorescence intensity Bottom (B) of microplate Before antigen binding (Anti-CRP antibody(r)): 4912
- fluorescence intensity In solution (S) After antigen binding (Anti-CRP antibody(r)): 5659
- fluorescence intensity In solution (S) Before antigen binding (Anti-CRP antibody(r)): 2242
- Bottom (B) of microplate Change (%) (Anti-hCG antibody(m)): −65.6%
- In solution (S) Change (%) (Anti-hCG antibody(m)): +206%
- fluorescence intensity Bottom (B) of microplate After antigen binding (Anti-hCG antibody(m)): 1940
- fluorescence intensity Bottom (B) of microplate Before antigen binding (Anti-hCG antibody(m)): 5646
- fluorescence intensity In solution (S) After antigen binding (Anti-hCG antibody(m)): 3921
- fluorescence intensity In solution (S) Before antigen binding (Anti-hCG antibody(m)): 1281
- fluorescence intensity in the solution depending on the concentration of the antigen (HRP) [1]: increase
- pKd ([1]; estimated, read-out: Equilibrium dissociation constants): 5.78
- FRET intensity (L2 peptide): increase
- fluorescence intensity remaining at bottom of plate after antigen (% of before) (Anti-HBsAg antibody(g); anti-HBsAg antibodies from goats, after antigen): 41.1%
- Bottom (B) of microplate Change (%) (Anti-HBsAg antibody(g); [4]): −58.9%
- fluorescence intensity Bottom (B) of microplate After antigen binding (Anti-HBsAg antibody(g); [4]): 4618
- fluorescence intensity Bottom (B) of microplate Before antigen binding (Anti-HBsAg antibody(g); [4]): 11225
- fluorescence intensity In solution (S) After antigen binding (Anti-HBsAg antibody(g); [4]): 11453
- remaining fluorescence intensity at plate bottom after antigen binding (% of before) (Anti-HRP antibody(r); anti-HRP antibodies from rabbits, after antigen): 12.3%
- Bottom (B) of microplate Change (%) (Anti-HRP antibody(r); [5]): −87.7%
- fluorescence intensity Bottom (B) of microplate After antigen binding (Anti-HRP antibody(r); [5]): 1451
- fluorescence intensity Bottom (B) of microplate Before antigen binding (Anti-HRP antibody(r); [5]): 11840
- fluorescence intensity In solution (S) After antigen binding (Anti-HRP antibody(r); [5]): 21965
- fluorescence intensity In solution (S) Before antigen binding (Anti-HRP antibody(r); [5]): 2596
- net charge [2]: 0.5
- decrease of fluorescence intensity at the bottom of the microplate [3]: 84.3%
- increase of fluorescence intensity in the solution [3]: 2,184%
